Measurements as given in PMC4632759, “Studies on [5,6]-Fused Bicyclic Scaffolds Derivatives as Potent Dual B-Raf^V600E/KDR Inhibitors Using Docking and 3D-QSAR Approaches” (International Journal of Molecular Sciences, 2015).
Like-named read-outs stand apart in the source and are kept apart here.

What was measured:
VEGFR2 [1] = target: T1, VEGFR2 (Homo sapiens, UniProt P35968); set-up: method as in PMID 22376051, PMID 22763369, PMID 22883026, PMID 23906342; settings: literature values used as 3D-QSAR data set; read-out: Kinase IC50 VEGFR2; cited from earlier work
T1 sequence (P35968 806-1171): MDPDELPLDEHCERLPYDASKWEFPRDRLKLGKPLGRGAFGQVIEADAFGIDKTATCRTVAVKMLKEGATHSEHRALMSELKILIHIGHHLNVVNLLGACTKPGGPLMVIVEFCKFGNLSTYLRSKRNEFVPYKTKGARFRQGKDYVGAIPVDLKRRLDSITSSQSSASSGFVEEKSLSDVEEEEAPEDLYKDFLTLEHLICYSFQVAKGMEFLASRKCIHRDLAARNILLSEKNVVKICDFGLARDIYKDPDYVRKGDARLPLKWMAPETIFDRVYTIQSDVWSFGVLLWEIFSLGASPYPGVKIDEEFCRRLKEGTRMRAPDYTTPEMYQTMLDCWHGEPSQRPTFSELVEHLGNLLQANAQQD

VEGFR2 [2] = target: T1, VEGFR2; assay: VEGFR2 (KDR) kinase inhibition (literature data set); format: biochemical
Method: (§1) The IC50 values of all compounds for B-Raf and KDR inhibition were converted to the −log IC50 (pIC50) as dependent variables in the 3D-QSAR analysis. The 3D structures for all 40 compounds were built and minimized, and then Gasteiger-Hückel charge was calculated.

B-Raf^V600E [3] = target: T2, B-Raf^V600E (Homo sapiens, UniProt P15056, V600E); assay: B-Raf^V600E kinase inhibition (literature data set); format: biochemical; settings: −log IC50 of literature IC50; for IC50: read-out: B-Raf Actual pIC50 (converted)
T2 sequence (P15056 whole entry V600E): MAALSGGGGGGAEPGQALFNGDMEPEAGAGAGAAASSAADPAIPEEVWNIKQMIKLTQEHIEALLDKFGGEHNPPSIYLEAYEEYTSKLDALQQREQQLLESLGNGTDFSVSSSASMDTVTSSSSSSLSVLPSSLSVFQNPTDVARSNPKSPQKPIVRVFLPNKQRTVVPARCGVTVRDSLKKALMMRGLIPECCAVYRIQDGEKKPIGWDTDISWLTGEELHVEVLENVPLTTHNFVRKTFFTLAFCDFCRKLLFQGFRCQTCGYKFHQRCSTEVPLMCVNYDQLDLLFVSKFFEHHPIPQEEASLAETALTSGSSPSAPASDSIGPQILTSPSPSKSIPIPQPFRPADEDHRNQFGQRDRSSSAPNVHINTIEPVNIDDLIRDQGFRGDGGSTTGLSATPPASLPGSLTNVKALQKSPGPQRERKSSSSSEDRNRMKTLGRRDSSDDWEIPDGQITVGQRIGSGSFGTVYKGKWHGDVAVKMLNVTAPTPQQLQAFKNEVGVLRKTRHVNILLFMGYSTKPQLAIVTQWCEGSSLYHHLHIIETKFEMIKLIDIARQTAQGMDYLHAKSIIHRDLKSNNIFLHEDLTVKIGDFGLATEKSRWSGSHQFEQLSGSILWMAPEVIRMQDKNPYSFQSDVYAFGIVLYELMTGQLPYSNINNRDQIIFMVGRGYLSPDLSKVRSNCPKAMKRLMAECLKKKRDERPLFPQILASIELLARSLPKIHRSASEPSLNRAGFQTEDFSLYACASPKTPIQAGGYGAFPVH
Method: as §1, with “calculated. All works were all done in SYBYL 6.9 (Tripos, Inc.: St. Louis, MO, USA, 2002).” for “calculated.”

B-Raf^V600E [4] = target: T2, B-Raf^V600E; set-up: method as in PMID 22376051, PMID 22763369, PMID 22883026, PMID 23906342; settings: literature values used as 3D-QSAR data set; read-out: Kinase IC50 B-Raf^V600E; cited from earlier work
B-Raf^V600E [5] = target: T2, B-Raf^V600E; assay: B-Raf^V600E inhibitory activity of designed new compounds (preliminary pharmacological evaluation); format: biochemical; settings: for IC50: preliminary biological tests
From the text: (§2) The designed molecules were synthesized and the preliminary pharmacological evaluation would be used to verify the biological activity and our design strategy.

KDR = KDR (Homo sapiens, UniProt P35968); assay: KDR inhibitory activity of designed new compounds (preliminary pharmacological evaluation); format: biochemical; settings: for IC50: preliminary biological tests
Chain of KDR (P35968 20-1356): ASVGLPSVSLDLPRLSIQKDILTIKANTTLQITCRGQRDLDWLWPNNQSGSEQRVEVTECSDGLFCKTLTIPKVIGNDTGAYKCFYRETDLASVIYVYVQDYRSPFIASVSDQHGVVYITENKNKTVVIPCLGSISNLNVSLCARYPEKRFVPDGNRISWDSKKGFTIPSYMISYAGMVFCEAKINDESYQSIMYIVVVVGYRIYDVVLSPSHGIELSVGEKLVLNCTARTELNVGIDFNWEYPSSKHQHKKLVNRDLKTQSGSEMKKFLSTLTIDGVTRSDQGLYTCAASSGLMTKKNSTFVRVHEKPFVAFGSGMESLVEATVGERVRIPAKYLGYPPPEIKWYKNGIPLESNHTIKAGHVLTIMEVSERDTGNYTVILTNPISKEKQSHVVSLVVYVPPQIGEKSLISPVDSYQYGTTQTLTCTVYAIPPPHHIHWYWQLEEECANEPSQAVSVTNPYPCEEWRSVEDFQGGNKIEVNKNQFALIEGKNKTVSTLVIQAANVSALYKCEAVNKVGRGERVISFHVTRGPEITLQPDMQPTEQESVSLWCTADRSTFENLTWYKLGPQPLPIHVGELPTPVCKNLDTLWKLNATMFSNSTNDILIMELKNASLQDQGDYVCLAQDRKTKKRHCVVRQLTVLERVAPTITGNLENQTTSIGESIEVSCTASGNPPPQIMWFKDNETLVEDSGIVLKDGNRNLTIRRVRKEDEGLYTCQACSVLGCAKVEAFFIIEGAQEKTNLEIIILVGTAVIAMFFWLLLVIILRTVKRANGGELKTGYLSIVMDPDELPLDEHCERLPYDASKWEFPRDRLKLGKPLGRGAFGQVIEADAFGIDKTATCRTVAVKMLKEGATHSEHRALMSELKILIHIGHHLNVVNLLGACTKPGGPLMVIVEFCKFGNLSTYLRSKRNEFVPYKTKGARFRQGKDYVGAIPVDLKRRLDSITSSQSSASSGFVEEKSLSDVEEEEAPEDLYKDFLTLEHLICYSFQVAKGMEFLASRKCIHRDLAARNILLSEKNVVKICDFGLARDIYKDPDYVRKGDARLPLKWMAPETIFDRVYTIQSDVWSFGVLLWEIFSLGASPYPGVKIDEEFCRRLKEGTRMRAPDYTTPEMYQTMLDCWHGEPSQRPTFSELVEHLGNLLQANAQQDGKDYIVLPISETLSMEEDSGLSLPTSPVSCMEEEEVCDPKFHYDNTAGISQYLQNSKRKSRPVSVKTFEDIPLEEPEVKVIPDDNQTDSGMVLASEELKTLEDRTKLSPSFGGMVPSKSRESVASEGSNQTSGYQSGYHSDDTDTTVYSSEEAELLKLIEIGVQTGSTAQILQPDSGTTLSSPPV
From the text: as §2

| SMILES | IC50 (VEGFR2 [1]) [nM] | IC50 (VEGFR2 [2]) [nM] | IC50 (B-Raf^V600E [3]) [nM] | IC50 (B-Raf^V600E [4]) [nM] | KDR Actual pIC50 (VEGFR2 [2]; −log IC50 of literature IC50) | B-Raf Actual pIC50 (B-Raf^V600E [3]) | also measured |
| --- | --- | --- | --- | --- | --- | --- | --- |
| O=C(Nc1cccc(Oc2ccc3nc(NC(=O)C4CC4)cn3n2)c1)c1cccc(C(F)(F)F)c1 [Compound 1-4] | 1.9 | 1.91 | 7.59 | 7.6 | – | – | – |
| CC(=O)Nc1nc2ccc(N(C)c3ccc(F)c(NC(=O)c4cccc(OC(C)(C)C#N)c4Cl)c3)nc2s1 [Compound 3-7] | – | – | – | – | 7.85 | 7.35 | – |
| O=C(Nc1cccc(C(=O)c2ccc3nc(C(=O)NC4CC4)[nH]c3c2)c1)Nc1cccc(C(F)(F)F)c1 [Compound D8] | – | – | – | – | – | – | IC50 (B-Raf^V600E [5]): > 5000 nM; IC50 (KDR): 1320 nM |
| Cn1c(NC(=O)C2CC2)nc2ccc(Oc3cccc(NC(=O)c4cccc(C(C)(C)C#N)c4)c3)nc21 [Compound 2-4] | 2.4 | 2.4 | 200 | 200 | – | – | – |
| N#Cc1c(Oc2cccc(NC(=O)Cc3ccc(C(F)(F)F)cc3)c2)ccc2nc(NC(=O)C3CC3)sc12 [Compound 6-7] | – | – | – | – | 6.72 | 8.02 | – |
| CC(C)(C#N)c1cccc(C(=O)Nc2cccc(Oc3ccc4nc(NC(=O)C5CC5)cn4n3)c2)c1 [Compound 1-12] | 1.5 | 1.51 | 14.1 | 14 | – | – | – |
| CC(C)NC(=O)c1nc2ccc(C(=O)c3cccc(NC(=O)Nc4cccc(C(F)(F)F)c4)c3)cc2[nH]1 [Compound D7] | – | – | – | – | – | – | IC50 (B-Raf^V600E [5]): > 5000 nM; IC50 (KDR): 1520 nM |
| CC(=O)Nc1nc2cnc(Oc3cc(NC(=O)c4cccc(CC(C)(C)C#N)c4)ccc3C)nc2s1 [Compound 4-2] | 300 | 302 | 100 | – | – | – | – |
| O=C(Nc1cccc(Oc2ccc3nc(NC(=O)C4CCOCC4)cn3n2)c1)c1cccc(C(F)(F)F)c1 [Compound 1-1] | – | – | 42.7 | 43 | – | – | – |
| N#CC1(c2cccc(C(=O)Nc3cc(Oc4ccc5nc(NC(=O)C6CC6)sc5n4)ccc3F)c2Cl)CC1 [Compound 3-3] | – | – | 7.08 | – | – | – | IC50 (VEGFR2 [2]; −log IC50 of literature IC50, read-out: KDR Actual pIC50 (converted)): 2.19 nM |
| N#Cc1c(Oc2ccc(F)c(NC(=O)Nc3ccc(C(F)(F)F)cc3)c2)ccc2nc(NC(=O)C3CC3)sc12 [Compound 6-4] | – | – | – | > 26 | 6.18 | 7.59 | – |
| COC(=O)c1c(Oc2cccc(NC(=O)c3cccc(C(C)(C)C#N)c3)c2)ccc2nc(NC(=O)C3CC3)sc12 [Compound 5-3] | – | – | – | – | 7.48 | 7.92 | – |
| O=C(Nc1cccc(Oc2ccc3nc(NC(=O)C4CCC4)cn3n2)c1)c1cccc(C(F)(F)F)c1 [Compound 1-5] | 4.8 | 4.79 | 28.2 | 28 | – | – | – |
| CNC(=O)c1nc2ccc(C(=O)c3cccc(NC(=O)c4cccc(Cl)c4)c3)cc2[nH]1 [Compound D2] | – | – | – | – | – | – | Actual pIC50 B-Raf (B-Raf^V600E [5]): 6.38; IC50 (B-Raf^V600E [5]): 420 nM; Actual pIC50 KDR (KDR): 6.68; IC50 (KDR): 210 nM |
| N#CC1(c2cccc(C(=O)Nc3cccc(Oc4ccc5nc(NC(=O)C6CC6)sc5n4)c3)c2Cl)CC1 [Compound 3-2] | 4 | 3.98 | 8.91 | 9 | – | – | – |
| CC(C)(C#N)c1cccc(C(=O)Nc2cccc(Oc3ccc4nc(NC(=O)C5CC5)sc4c3[N+](=O)[O-])c2)c1 [Compound 5-1] | – | – | – | – | 7.15 | 7.60 | – |
| N#Cc1c(Oc2ccc(F)c(NC(=O)Nc3cccc(C(F)(F)F)c3)c2)ccc2nc(NC(=O)C3CC3)sc12 [Compound 6-3] | – | – | – | – | 6.14 | 7.31 | – |
| CN(c1ccc(F)c(NC(=O)c2cccc(OC(C)(C)C#N)c2Cl)c1)c1ccc2nc(NC(=O)C3CC3)sc2n1 [Compound 3-8] | – | – | – | – | 8.12 | – | – |
| N#Cc1c(Oc2cccc(NC(=O)Cc3cccc(C(F)(F)F)c3)c2)ccc2nc(NC(=O)C3CC3)sc12 [Compound 6-6] | – | – | – | – | 6.82 | 8.89 | – |
| CC(=O)Nc1nc2ccc(Oc3ccc(F)c(NC(=O)c4cccc(C5(C#N)CC5)c4Cl)c3)nc2s1 [Compound 3-5] | 3.4 | 3.39 | 6.31 | 6.3 | – | – | – |
| N#Cc1c(Oc2cccc(NC(=O)Cc3ccccc3C(F)(F)F)c2)ccc2nc(NC(=O)C3CC3)sc12 [Compound 6-5] | – | – | – | – | 7.00 | 7.85 | – |
| N#CC1(c2cccc(C(=O)Nc3cc(Oc4ccc5nc(NC(=O)C6CC6)sc5n4)ccc3Cl)c2Cl)CC1 [Compound 3-4] | 7.5 | 7.59 | 42.7 | 43 | – | – | – |

| SMILES | IC50 (VEGFR2 [1]) [nM] | IC50 (VEGFR2 [2]) [nM] | IC50 (B-Raf^V600E [3]) [nM] | IC50 (B-Raf^V600E [4]) [nM] | KDR Actual pIC50 (VEGFR2 [2]; −log IC50 of literature IC50) | B-Raf Actual pIC50 (B-Raf^V600E [3]) | also measured |
| --- | --- | --- | --- | --- | --- | --- | --- |
| CC(=O)Nc1nc2cnc(Oc3cc(NC(=O)c4cccc(OC(C)(C)C#N)c4)ccc3C)nc2s1 [Compound 4-3] | 510 | 513 | 72.4 | 73 | – | – | – |
| CC(C)(C#N)c1cccc(C(=O)Nc2cccc(Oc3ccc4nc(NC(=O)C5CC5)cn4c3)c2)c1 [Compound 2-1] | 1.8 | 1.82 | 49 | 49 | – | – | – |
| CC(=O)Nc1nc2ccc(N(C)c3ccc(F)c(NC(=O)c4cccc(OC(C)(C)C#N)c4)c3)nc2s1 [Compound 3-6] | – | – | – | – | 8.00 | 7.64 | – |
| COc1cccc(C(=O)Nc2cccc(Oc3ccc4nc(NC(=O)C5CC5)cn4n3)c2)c1 [Compound 1-9] | 0.31 | 0.309 | 18.2 | 18 | – | – | – |
| O=C(Nc1cccc(Oc2ccc3nc(NC(=O)C4CC4)cn3n2)c1)c1ccccc1C(F)(F)F [Compound 1-8] | 1.4 | 1.41 | 3720 | 3700 | – | – | – |
| N#Cc1c(Oc2ccc(F)c(NC(=O)Cc3cccc(C(F)(F)F)c3)c2)ccc2nc(NC(=O)C3CC3)sc12 [Compound 6-8] | – | – | – | – | 6.80 | 8.62 | – |
| CC(=O)Nc1cn2nc(Oc3cccc(NC(=O)c4cccc(C(F)(F)F)c4)c3)ccc2n1 [Compound 1-2] | 1.1 | 1.1 | 4.07 | 4.1 | – | – | – |
| CC(C)(C#N)c1cccc(C(=O)Nc2cccc(Oc3ccc4nc(NC(=O)C5CC5)sc4c3)c2)c1 [Compound 2-5] | 14 | 14.1 | 25.1 | 25 | – | – | – |
| CC(C)(O)c1cccc(C(=O)Nc2cccc(Oc3ccc4nc(NC(=O)C5CC5)cn4n3)c2)c1 [Compound 1-11] | 0.82 | 0.813 | 10 | – | – | – | – |
| O=C(Nc1cccc(Oc2ccc3nc(NC(=O)C4CC4)cn3n2)c1)c1ccc(C(F)(F)F)cc1 [Compound 1-7] | 1.9 | 1.91 | 81.3 | 81 | – | – | – |
| CC(C)(C#N)c1cccc(C(=O)Nc2cccc(Oc3ccc4nc(NC(=O)C5CC5)[nH]c4c3)c2)c1 [Compound 2-2] | 8.1 | 8.13 | 40.7 | 41 | – | – | – |
| CC(C)(C)Oc1cccc(C(=O)Nc2cccc(Oc3ccc4nc(NC(=O)C5CC5)cn4n3)c2)c1 [Compound 1-10] | 1.8 | 1.82 | 15.1 | 15 | – | – | – |
| CC(C)(C#N)c1cccc(C(=O)Nc2cccc(Oc3ccc4nc(NC(=O)C5CC5)sc4c3C#N)c2)c1 [Compound 5-2] | – | – | – | – | 7.12 | 7.89 | – |
| N#CC1(c2cccc(C(=O)Nc3cccc(Oc4ccc5nc(NC(=O)C6CC6)sc5n4)c3)c2)CC1 [Compound 3-1] | 2.2 | 2.19 | 3.02 | 3 | – | – | – |
| N#Cc1c(Oc2cccc(NC(=O)Nc3ccccc3C(F)(F)F)c2)ccc2nc(NC(=O)C3CC3)sc12 [Compound 6-1] | – | – | – | – | 6.92 | 7.72 | – |
| CC(C)(C#N)c1cccc(C(=O)Nc2cccc(Oc3ccc4nc(NC(=O)C5CC5)sc4c3CO)c2)c1 [Compound 5-4] | – | – | – | – | 8.13 | 7.62 | – |
| CCC(=O)Nc1cn2nc(Oc3cccc(NC(=O)c4cccc(C(F)(F)F)c4)c3)ccc2n1 [Compound 1-3] | 1.7 | 1.7 | 6.92 | 6.9 | – | – | – |
| CC(=O)Nc1nc2cnc(Oc3cc(NC(=O)c4cccc(CCC#N)c4)ccc3C)nc2s1 [Compound 4-1] | 410 | 407 | 51.3 | 51 | – | – | – |
| O=C(Nc1cccc(Oc2ccc3nc(NC(=O)C4CCCC4)cn3n2)c1)c1cccc(C(F)(F)F)c1 [Compound 1-6] | 9.3 | 9.33 | 43.7 | 44 | – | – | – |
| N#Cc1c(Oc2cccc(NC(=O)Nc3ccc(C(F)(F)F)cc3)c2)ccc2nc(NC(=O)C3CC3)sc12 [Compound 6-2] | – | – | – | – | 6.48 | 7.74 | – |
| CC(C)(C#N)c1cccc(C(=O)Nc2cccc(Oc3ccc4nc(NC(=O)C5CC5)[nH]c4n3)c2)c1 [Compound 2-3] | 3.1 | 3.09 | 17 | 17 | – | – | – |
